Each structure is given as a SMILES string. Some results are limits rather than exact numbers.

Format in all cases: biochemical
In one experiment the target is T1, Jnk1a1 HIS (Homo sapiens, UniProt P45983).
T1 construct: His
As to the kind of experiment: General kinase assay: Jnk1a1. As to conditions: concentration 10 μM; read-out: Inhibitory effect on Target Jnk1a1 HIS. As for the experimental part: (§1) General Assay Protocol for all Kinases [[[…]]] [[[…]]] Reaction Buffer: Final Assay Concentrations: [[[…]]] Pipetting Sequence: • 1) Add 8 μl 50 μM MBP in Reaction Buffer to each well of Assay Plate • 2) Add 10 μl 500 mM EDTA in H2O to C- wells • 3) Add 8 μl 62.5 μCi/ml Adenosine 5'-[γ-^33P]triphosphate+5 μM ATP in Reaction Buffer to each well • 4) Add 8 μl 5 fold concentrated inhibitor in 5% DMSO in Reaction Buffer to each well except to C- and C+ wells • 5) Add 8 μl 5% DMSO in Reaction Buffer to C- and C+ wells • 6) Add 8 μl 5 fold concentrated kinase in Reaction Buffer to each well • 7) Incubate 1 hr at room temperature • 8) Add 10 μl 50 mM EDTA in H2O to each well except to C- wells • 9) Prepare MAPH plates by adding 200 μl 0.75% H3PO4 to each well • 10) Exhaust 0.75% H3PO4 using Millipore vacuum station • 11) Add 60 μl 0.75% H3PO4 to each well of MAPH Filter Plate • 12) Transfer 30 μl sample per well from Assay Plate to corresponding well of MAPH Filter Plate • 13) Incubate 30 min at room temperature • 14) Wash each well of MAPH Filter Plates 3× with 200 μl 0.75% H3PO4 using Millipore vacuum station • 15) Add 20 μl Szintilation Liquid to each well of MAPH Filter Plate • 16) Seal MAPH Filter Plate • 17) Store MAPH Filter Plate 30 min in darkness • 18) Quantify radioactivity

The target of the next experiment is T2, RICK-STREP 1 (Homo sapiens, UniProt O43353).
T2 construct: Strep
Kind of experiment: General kinase assay: RICK. To be noted: concentration 10 μM; read-out: Inhibitory effect on Target RICK-STREP 1. On the procedure:
as §1

The next experiment deals with T3, EGFR GST-HIS (Homo sapiens, UniProt P00533).
T3 construct: GST; His
As to the kind of experiment: General kinase assay: EGFR. To be noted: concentration 10 μM; read-out: Inhibitory effect on Target EGFR GST-HIS. As for the experimental part: as §1

A further experiment has as its target T4, cMet GST-HIS (Homo sapiens, UniProt P08581).
T4 construct: GST; His
Kind of experiment: General kinase assay: cMet. As to conditions: concentration 10 μM; read-out: Inhibitory effect on Target cMet GST-HIS. On the procedure:
as §1

Another experiment has as its target T5, CK1-alpha GST (Homo sapiens, UniProt P48729).
T5 construct: GST
As to the kind of experiment: General kinase assay: CK1-alpha. To be noted: concentration 10 μM; read-out: Inhibitory effect on Target CK1-alpha GST. As for the experimental part: as §1

The next experiment concerns p70S6K HIS. Kind of experiment: General kinase assay: p70S6K. As to conditions: concentration 10 μM. As for the experimental part:
as §1

In another experiment the target is T6, PDGFRbeta GST (Homo sapiens, UniProt P09619).
T6 construct: GST
Kind of experiment: General kinase assay: PDGFRbeta. To be noted: concentration 10 μM; read-out: Inhibitory effect on Target PDGFRbeta GST. On the procedure: as §1

A further experiment addresses T7, GSK-3beta HIS (Homo sapiens, UniProt P49841).
T7 construct: His
Kind of experiment: General kinase assay: GSK-3beta. To be noted: concentration 10 μM; read-out: Inhibitory effect on Target GSK-3beta HIS. On the procedure: as §1

In a further experiment the target is T8, SRPK1 GST (Homo sapiens, UniProt Q96SB4).
T8 construct: GST
Kind of experiment: General kinase assay: SRPK1. As to conditions: concentration 10 μM; read-out: Inhibitory effect on Target SRPK1 GST. As for the experimental part: as §1

The next experiment deals with T9, IKKbeta HIS (Homo sapiens, UniProt O14920).
T9 construct: His
T9 sequence (O14920 1-756): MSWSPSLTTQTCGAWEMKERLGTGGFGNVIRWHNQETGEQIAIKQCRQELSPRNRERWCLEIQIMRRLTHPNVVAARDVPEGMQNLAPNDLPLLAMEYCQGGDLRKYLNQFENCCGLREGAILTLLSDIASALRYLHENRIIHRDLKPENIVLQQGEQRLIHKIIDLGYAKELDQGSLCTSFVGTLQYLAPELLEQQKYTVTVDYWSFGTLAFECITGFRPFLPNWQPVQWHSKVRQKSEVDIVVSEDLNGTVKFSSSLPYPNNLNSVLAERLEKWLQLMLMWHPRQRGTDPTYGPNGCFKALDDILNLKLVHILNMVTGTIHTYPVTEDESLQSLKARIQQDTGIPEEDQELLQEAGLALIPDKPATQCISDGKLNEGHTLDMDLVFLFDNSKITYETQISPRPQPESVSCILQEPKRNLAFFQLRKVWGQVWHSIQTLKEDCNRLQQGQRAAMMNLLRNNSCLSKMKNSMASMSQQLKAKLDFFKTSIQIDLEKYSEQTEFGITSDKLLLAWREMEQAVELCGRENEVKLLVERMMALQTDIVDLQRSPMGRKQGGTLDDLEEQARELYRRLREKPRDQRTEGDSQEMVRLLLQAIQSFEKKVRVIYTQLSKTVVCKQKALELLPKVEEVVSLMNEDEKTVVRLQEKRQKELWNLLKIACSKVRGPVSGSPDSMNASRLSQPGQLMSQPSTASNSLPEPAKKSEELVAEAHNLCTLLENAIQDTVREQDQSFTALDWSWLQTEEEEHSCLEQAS
Kind of experiment: General kinase assay: IKKbeta. As to conditions: concentration 10 μM; read-out: Inhibitory effect on Target IKKbeta HIS. On the procedure:
as §1

Another experiment concerns the target CDK2/CycA (Homo sapiens, UniProt P24941). Kind of experiment: General kinase assay: CDK2/CycA. As to conditions: concentration 10 μM; read-out: Inhibitory effect on Target CDK2/CycA. On the procedure:
as §1

For the next experiment, the target named is T10, Kit human GST (Homo sapiens, UniProt P10721).
T10 construct: GST
As to the kind of experiment: General kinase assay: Kit. As to conditions: concentration 10 μM; read-out: Inhibitory effect on Target Kit human GST. As for the experimental part: as §1

Another experiment has as its target T11, InsR GST (Homo sapiens, UniProt P06213).
T11 construct: GST
As to the kind of experiment: General kinase assay: InsR. To be noted: concentration 10 μM; read-out: Inhibitory effect on Target InsR GST. As for the experimental part: as §1

In a further experiment the target is T12, RSK1 act. HIS (Homo sapiens, UniProt Q15418).
T12 construct: His
As to the kind of experiment: General kinase assay: RSK1. As to conditions: concentration 10 μM; read-out: Inhibitory effect on Target RSK1 act. HIS. As for the experimental part:
as §1

The next experiment addresses T13, AKT1/PKBa act. HIS (Homo sapiens, UniProt P31749).
T13 construct: His
As to the kind of experiment: General kinase assay (MBP, 33P-ATP, filter plate): AKT1/PKBa. To be noted: concentration 10 μM; read-out: Inhibitory effect on Target AKT1/PKBa act. HIS. On the procedure:
as §1

The target of a further experiment is T14, c-Src HIS (Homo sapiens, UniProt P12931).
T14 construct: His
As to the kind of experiment: General kinase assay: c-Src. To be noted: concentration 10 μM; read-out: Inhibitory effect on Target c-Src HIS. On the procedure: as §1

The next experiment has as its target CDK1/CycB act.GST-HIS (Homo sapiens, UniProt P06493). As to the kind of experiment: General kinase assay: CDK1/CycB. To be noted: concentration 10 μM; read-out: Inhibitory effect on Target CDK1/CycB act.GST-HIS. On the procedure: as §1
In a further experiment the target is T15, ROCK2 human HIS (Homo sapiens, UniProt O75116).
T15 construct: His
As to the kind of experiment: General kinase assay: ROCK2. As to conditions: concentration 10 μM; read-out: Inhibitory effect on Target ROCK2 human HIS. As for the experimental part:
as §1

T5 sequence (P48729 whole entry): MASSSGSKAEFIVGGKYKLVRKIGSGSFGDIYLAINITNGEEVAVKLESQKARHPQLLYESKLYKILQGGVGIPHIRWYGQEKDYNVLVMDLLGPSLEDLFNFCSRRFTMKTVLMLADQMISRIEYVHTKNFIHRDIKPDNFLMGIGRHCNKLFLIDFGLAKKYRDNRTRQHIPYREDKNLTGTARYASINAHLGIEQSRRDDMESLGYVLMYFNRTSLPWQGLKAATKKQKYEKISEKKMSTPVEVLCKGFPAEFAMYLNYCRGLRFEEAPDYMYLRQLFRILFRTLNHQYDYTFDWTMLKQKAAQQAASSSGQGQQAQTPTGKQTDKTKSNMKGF
T2 sequence (O43353 whole entry): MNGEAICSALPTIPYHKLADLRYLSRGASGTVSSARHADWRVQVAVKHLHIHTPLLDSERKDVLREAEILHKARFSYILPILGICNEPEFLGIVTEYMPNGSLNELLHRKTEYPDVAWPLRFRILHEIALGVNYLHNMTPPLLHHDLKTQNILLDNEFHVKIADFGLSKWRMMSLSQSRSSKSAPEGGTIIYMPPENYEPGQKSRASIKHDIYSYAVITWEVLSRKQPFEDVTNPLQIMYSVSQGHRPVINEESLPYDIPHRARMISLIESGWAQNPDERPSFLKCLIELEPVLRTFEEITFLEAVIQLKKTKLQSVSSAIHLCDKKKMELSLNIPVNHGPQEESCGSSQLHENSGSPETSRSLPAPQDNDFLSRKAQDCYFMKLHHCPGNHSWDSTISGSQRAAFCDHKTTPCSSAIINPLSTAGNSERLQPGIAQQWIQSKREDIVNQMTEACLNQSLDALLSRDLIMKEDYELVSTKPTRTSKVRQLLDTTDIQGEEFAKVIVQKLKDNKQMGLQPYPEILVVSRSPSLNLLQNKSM
T8 sequence (Q96SB4 whole entry): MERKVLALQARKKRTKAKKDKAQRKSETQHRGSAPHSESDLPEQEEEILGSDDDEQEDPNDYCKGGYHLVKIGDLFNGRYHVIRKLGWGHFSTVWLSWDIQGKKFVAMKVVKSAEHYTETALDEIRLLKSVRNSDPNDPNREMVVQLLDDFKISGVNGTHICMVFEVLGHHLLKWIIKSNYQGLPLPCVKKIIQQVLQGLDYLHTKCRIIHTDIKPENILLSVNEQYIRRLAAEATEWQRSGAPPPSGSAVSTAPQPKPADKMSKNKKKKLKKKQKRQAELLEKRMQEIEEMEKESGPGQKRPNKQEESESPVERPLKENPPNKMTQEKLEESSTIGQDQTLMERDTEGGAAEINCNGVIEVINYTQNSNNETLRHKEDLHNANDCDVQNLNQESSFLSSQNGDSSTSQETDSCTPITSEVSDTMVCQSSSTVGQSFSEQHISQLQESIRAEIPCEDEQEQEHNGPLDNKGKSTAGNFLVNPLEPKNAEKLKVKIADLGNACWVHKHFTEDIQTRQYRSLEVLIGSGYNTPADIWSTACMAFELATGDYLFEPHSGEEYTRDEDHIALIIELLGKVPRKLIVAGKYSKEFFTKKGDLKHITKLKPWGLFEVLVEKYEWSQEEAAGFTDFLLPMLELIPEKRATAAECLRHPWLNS
T1 sequence (P45983 1-384 isoform P45983-2): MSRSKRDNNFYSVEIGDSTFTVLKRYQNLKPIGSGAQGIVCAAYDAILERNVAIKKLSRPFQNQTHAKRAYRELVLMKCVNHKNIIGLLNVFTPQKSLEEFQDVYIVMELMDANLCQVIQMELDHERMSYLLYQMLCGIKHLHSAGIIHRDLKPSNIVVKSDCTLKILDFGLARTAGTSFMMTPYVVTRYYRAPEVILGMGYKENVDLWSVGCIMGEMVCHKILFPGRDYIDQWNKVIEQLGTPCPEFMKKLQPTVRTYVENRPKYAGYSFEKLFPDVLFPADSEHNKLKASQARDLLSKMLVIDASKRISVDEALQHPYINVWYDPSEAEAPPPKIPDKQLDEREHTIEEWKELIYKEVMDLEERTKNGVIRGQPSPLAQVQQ
T10 sequence (P10721 26-976): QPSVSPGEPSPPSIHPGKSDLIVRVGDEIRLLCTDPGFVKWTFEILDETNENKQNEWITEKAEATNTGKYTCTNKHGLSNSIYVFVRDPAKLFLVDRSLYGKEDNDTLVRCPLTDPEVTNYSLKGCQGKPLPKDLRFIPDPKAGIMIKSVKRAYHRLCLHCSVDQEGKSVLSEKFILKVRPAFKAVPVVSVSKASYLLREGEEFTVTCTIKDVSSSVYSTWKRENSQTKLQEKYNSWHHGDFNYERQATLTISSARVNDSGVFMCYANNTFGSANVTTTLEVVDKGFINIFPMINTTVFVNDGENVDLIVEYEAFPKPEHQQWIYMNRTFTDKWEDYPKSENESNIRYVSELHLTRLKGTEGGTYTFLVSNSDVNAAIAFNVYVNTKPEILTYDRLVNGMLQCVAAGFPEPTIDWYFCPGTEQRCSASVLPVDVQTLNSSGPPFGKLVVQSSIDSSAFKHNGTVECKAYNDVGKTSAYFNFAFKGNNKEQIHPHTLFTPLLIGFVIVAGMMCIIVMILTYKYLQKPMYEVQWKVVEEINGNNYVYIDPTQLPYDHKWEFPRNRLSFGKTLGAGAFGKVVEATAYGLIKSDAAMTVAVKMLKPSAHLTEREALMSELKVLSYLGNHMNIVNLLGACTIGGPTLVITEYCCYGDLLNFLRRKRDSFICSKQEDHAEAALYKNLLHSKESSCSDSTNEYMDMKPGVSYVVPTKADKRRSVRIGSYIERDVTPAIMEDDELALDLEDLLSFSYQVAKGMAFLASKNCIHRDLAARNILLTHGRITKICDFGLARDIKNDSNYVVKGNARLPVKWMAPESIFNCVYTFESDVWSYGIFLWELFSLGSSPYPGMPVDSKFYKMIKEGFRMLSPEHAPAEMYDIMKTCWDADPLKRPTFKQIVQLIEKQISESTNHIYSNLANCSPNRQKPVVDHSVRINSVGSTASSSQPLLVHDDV
T7 sequence (P49841 whole entry): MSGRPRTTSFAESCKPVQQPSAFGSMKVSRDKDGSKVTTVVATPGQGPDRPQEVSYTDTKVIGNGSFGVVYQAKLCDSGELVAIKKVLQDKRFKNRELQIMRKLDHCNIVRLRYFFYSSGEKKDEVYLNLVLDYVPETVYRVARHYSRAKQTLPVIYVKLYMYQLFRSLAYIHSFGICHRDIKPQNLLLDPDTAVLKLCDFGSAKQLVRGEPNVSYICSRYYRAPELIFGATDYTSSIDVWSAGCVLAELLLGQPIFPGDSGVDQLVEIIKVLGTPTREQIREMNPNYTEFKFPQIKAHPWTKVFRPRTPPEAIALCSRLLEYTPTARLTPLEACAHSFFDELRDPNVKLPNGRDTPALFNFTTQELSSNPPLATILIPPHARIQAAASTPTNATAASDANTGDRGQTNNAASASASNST
T6 sequence (P09619 33-1106): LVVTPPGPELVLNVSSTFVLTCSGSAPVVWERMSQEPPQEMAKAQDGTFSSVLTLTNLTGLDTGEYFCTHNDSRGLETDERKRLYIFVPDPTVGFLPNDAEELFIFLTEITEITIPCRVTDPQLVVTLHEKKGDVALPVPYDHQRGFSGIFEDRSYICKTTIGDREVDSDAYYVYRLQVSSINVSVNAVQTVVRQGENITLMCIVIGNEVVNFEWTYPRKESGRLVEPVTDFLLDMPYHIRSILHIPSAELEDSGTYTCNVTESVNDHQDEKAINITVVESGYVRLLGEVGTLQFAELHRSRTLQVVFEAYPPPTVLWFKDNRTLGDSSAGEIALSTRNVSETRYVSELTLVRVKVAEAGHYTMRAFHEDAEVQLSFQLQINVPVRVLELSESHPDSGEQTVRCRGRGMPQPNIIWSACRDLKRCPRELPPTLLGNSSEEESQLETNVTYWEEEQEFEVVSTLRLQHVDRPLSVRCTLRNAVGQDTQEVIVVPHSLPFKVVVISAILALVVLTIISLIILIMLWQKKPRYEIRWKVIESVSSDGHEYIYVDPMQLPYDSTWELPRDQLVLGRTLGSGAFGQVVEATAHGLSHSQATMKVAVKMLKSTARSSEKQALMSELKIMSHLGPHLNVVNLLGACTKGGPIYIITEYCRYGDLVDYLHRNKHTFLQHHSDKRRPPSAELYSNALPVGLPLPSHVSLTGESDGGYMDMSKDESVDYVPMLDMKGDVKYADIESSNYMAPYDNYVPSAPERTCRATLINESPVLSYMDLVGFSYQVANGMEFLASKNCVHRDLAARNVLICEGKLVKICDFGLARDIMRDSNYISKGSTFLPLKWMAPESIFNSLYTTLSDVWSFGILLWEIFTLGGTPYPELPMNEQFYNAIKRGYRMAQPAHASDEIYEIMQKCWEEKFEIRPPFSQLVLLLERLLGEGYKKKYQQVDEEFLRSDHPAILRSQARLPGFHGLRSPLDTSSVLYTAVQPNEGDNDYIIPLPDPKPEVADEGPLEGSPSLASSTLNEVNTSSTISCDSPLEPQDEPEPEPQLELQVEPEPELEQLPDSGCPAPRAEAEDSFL
T14 sequence (P12931 whole entry): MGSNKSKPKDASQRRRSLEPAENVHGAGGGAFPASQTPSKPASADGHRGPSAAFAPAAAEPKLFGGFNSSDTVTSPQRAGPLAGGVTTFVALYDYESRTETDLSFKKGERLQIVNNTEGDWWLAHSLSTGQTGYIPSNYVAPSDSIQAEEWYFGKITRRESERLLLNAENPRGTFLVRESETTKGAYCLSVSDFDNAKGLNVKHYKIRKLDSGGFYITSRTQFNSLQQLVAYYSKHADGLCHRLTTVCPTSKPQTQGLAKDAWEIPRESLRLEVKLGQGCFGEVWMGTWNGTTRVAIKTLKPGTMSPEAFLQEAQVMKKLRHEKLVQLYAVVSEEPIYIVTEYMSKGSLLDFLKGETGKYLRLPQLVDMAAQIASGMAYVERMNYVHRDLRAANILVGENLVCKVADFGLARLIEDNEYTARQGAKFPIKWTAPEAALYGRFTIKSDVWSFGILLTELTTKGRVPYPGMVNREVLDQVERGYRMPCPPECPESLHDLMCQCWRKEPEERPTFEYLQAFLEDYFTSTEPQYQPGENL

For the compound `NC(=O)c1c(NC(=O)C2CC2)sc2c(O)c(Br)ccc12` [Compound A15, 6-Bromo-2-(cyclopropanecarbonyl-amino)-7-hydroxy-benzo[b]thiophene-3-carboxylic acid amide], the inhibition at 10 µM at Jnk1a1 HIS, on RICK-STREP 1, on EGFR GST-HIS, at cMet GST-HIS, on CK1-alpha GST and at PDGFRbeta GST was above 50% throughout. Besides, the inhibition at 10 µM at GSK-3beta HIS and at SRPK1 GST was above 50% each time. For the same compound, the “Inhibitory effect on Target p70S6K HIS” value with p70S6K HIS was “+ (+ = >50% inhibition at concentration 10 μM)”.

Regarding `CC1CC1C(=O)Nc1sc2c(Cl)c(O)ccc2c1C(N)=O` (stereo not shown) [Compound A37, 7-Chloro-6-hydroxy-2-[(2-methyl-cyclopropanecarbonyl)-amino]-benzo[b]thiophene-3-carboxylic acid amide], the inhibition at 10 µM on Jnk1a1 HIS, at IKKbeta HIS, at RICK-STREP 1, at EGFR GST-HIS, on CK1-alpha GST and on CDK2/CycA was above 50% in each case. For the same compound, the inhibition at 10 µM on Kit human GST, at PDGFRbeta GST, on InsR GST, on RSK1 act. HIS, at AKT1/PKBa act. HIS and at GSK-3beta HIS was above 50% each time. Besides, the inhibition at 10 µM on SRPK1 GST was above 50%. Also, in the experiment on p70S6K HIS, the “Inhibitory effect on Target p70S6K HIS” value is reported as “+ (+ = >50% inhibition at concentration 10 μM)”.

For the compound `NC(=O)c1c(NC(=O)Nc2ccc(F)cc2)sc2c1CCC(O)C2` (stereo not shown) [Compound D142, 2-[3-(4-Fluoro-phenyl)-ureido]-6-hydroxy-4,5,6,7-tetrahydro-benzo[b]thiophene-3-carboxylic acid amide], the inhibition at 10 µM on IKKbeta HIS, at RICK-STREP 1, at CK1-alpha GST, on CDK2/CycA, at c-Src HIS and at SRPK1 GST was above 50% in each case.

On to `NC(=O)c1c(NC(=O)Nc2ccc(F)cc2)sc2c1CCOC2` [Compound B13, 2-[3-(4-Fluoro-phenyl)-ureido]-4,7-dihydro-5H-thieno[2,3-c]pyran-3-carboxylic acid amide], for which the inhibition at 10 µM on CDK1/CycB act.GST-HIS, on Kit human GST, on PDGFRbeta GST and at SRPK1 GST was above 50% throughout.

`NC(=O)c1c(NC(=O)Nc2ccccc2)sc2cc(O)ccc12` [Compound A12, 6-Hydroxy-2-(3-phenyl-ureido)-benzo[b]thiophene-3-carboxylic acid amide]: the inhibition at 10 µM on Jnk1a1 HIS, on RICK-STREP 1, on EGFR GST-HIS, on CK1-alpha GST, at CDK2/CycA and on Kit human GST was above 50% throughout. Further, the inhibition at 10 µM on ROCK2 human HIS, on PDGFRbeta GST, at c-Src HIS, on RSK1 act. HIS, on GSK-3beta HIS and at SRPK1 GST was above 50% in each case. Further, the “Inhibitory effect on Target p70S6K HIS” value with p70S6K HIS is “+ (+ = >50% inhibition at concentration 10 μM)”.
